Tests used:
[1] = molar heat capacity at constant pressure; settings: Liquid, Flow calorimetry
[2] = molar heat capacity at constant pressure; xn = mol fraction of the nth substance listed; settings: Liquid, Flow calorimetry

Cc1ccc(C)c(C)c1 [1,2,4-trimethylbenzene]
molar heat capacity at constant pressure [J/K/mol], [1]
Settings | 100 kPa | 5000 kPa | 10000 kPa | 15000 kPa | 20000 kPa | 25000 kPa
293.15 K | 216.2 | 215 | 213.3 | 212.5 | 210.8 | 209.8
313.15 K | 222.5 | 221.2 | 219.6 | 218.5 | 217.7 | 217.1
333.15 K | 229.2 | 227.9 | 227.1 | 225.9 | 224.8 | 223.5

Cc1ccc(C)c(C)c1 [1,2,4-trimethylbenzene] + CCC(C)O
molar heat capacity at constant pressure [J/K/mol], [2]
Settings | x2 = 0 | x2 = 0.1001 | x2 = 0.3 | x2 = 0.5298 | x2 = 0.6001 | x2 = 0.7001 | x2 = 0.7997 | x2 = 0.9001
293.15 K, 100 kPa | 216.2 | 219.6 | 221.6 | 223.7 | 216 | 213 | 206.9 | 200.5
293.15 K, 5000 kPa | 215 | 218.1 | 220.8 | 222.1 | 215.3 | 211.7 | 205.2 | 198.5
293.15 K, 10000 kPa | 213.3 | 217 | 219.6 | 220.3 | 213.9 | 210.4 | 203.7 | 196.8
293.15 K, 15000 kPa | 212.5 | 216.2 | 219 | 218.9 | 213.2 | 208.5 | 201.9 | 195.5
293.15 K, 20000 kPa | 210.8 | 215.2 | 218.3 | 217.6 | 211.7 | 206.9 | 200.7 | 194.6
293.15 K, 25000 kPa | 209.8 | 214.6 | 217.3 | 215.9 | 210.5 | 205.5 | 199.7 | 193.3
313.15 K, 100 kPa | 222.5 | 231.1 | 235.8 | 234.2 | 233.8 | 232.1 | 226.9 | 224.2
313.15 K, 5000 kPa | 221.2 | 230.3 | 233.7 | 232.8 | 232.6 | 230 | 224.8 | 221.1
313.15 K, 10000 kPa | 219.6 | 229.5 | 232.6 | 231.9 | 230.1 | 227.4 | 222.4 | 218.9
313.15 K, 15000 kPa | 218.5 | 228.8 | 231.1 | 230.9 | 229 | 225.3 | 220.6 | 217.3
313.15 K, 20000 kPa | 217.7 | 227.7 | 229.9 | 229.6 | 227.2 | 223.8 | 219.3 | 216
313.15 K, 25000 kPa | 217.1 | 226.4 | 229.5 | 228.2 | 225.6 | 222.7 | 218.1 | 214.1

Cc1ccc(C)c(C)c1 [1,2,4-trimethylbenzene] + CCCCO
molar heat capacity at constant pressure [J/K/mol], [2]
Settings | x2 = 0 | x2 = 0.1002 | x2 = 0.2327 | x2 = 0.3969 | x2 = 0.53 | x2 = 0.637 | x2 = 0.7176 | x2 = 0.7975 | x2 = 0.8594 | x2 = 0.9131
293.15 K, 100 kPa | 216.2 | 220 | 219.5 | 214 | 209.9 | 203.6 | 197 | 192.5 | 186.5 | 181.9
293.15 K, 5000 kPa | 215 | 219 | 219 | 213.4 | 208.8 | 203.3 | 196 | 191.8 | 186.3 | 181.4
293.15 K, 10000 kPa | 213.3 | 217.3 | 218.1 | 212.8 | 207.7 | 202.4 | 194.9 | 190.8 | 185.1 | 181.1
293.15 K, 15000 kPa | 212.5 | 216 | 217.4 | 212.1 | 206.3 | 202 | 194.2 | 190.2 | 184.1 | 180.7
293.15 K, 20000 kPa | 210.8 | 215.4 | 216.9 | 211.3 | 205.9 | 201.1 | 193.3 | 189.6 | 183.4 | 180.3
293.15 K, 25000 kPa | 209.8 | 214.5 | 216.3 | 210.3 | 204.7 | 199.9 | 192 | 188.6 | 182.4 | 180
313.15 K, 100 kPa | 222.5 | 230.5 | 231.1 | 230 | 224.9 | 220.4 | 214.4 | 210.3 | 204.5 | 200.7
313.15 K, 5000 kPa | 221.2 | 229.4 | 230.1 | 228.9 | 223 | 218.9 | 212.6 | 209.1 | 203.7 | 199.4
313.15 K, 10000 kPa | 219.6 | 228.5 | 229.8 | 227.4 | 222.3 | 217.6 | 211.5 | 208.6 | 203.3 | 198.8
313.15 K, 15000 kPa | 218.5 | 227.3 | 228.5 | 226.4 | 220.5 | 216.5 | 210.2 | 207.8 | 202.6 | 197.7
313.15 K, 20000 kPa | 217.7 | 225.8 | 227.3 | 225.4 | 219.2 | 215.4 | 209.3 | 206.4 | 202 | 196.6
313.15 K, 25000 kPa | 217.1 | 225.5 | 227 | 224.3 | 218.4 | 213.6 | 208.1 | 206.1 | 201.3 | 196

CCC(C)O (stereo not drawn) [butan-2-ol]
molar heat capacity at constant pressure [J/K/mol], [1]
Settings | 100 kPa | 5000 kPa | 10000 kPa | 15000 kPa | 20000 kPa | 25000 kPa
293.15 K | 189.1 | 187.1 | 185.5 | 185.2 | 183.6 | 182.7
313.15 K | 214.9 | 213.1 | 211.1 | 209.4 | 207.2 | 204.9

CCC(C)O (stereo not drawn) [butan-2-ol] + Cc1ccc(C)c(C)c1
molar heat capacity at constant pressure [J/K/mol], [2], x1 = 1
Settings | 100 kPa | 5000 kPa | 10000 kPa | 15000 kPa | 20000 kPa | 25000 kPa
293.15 K | 189.1 | 187.1 | 185.5 | 185.2 | 183.6 | 182.7
313.15 K | 214.9 | 213.1 | 211.1 | 209.4 | 207.2 | 204.9

Reference: the NIST ThermoML archive (doi:10.1016/j.jct.2017.03.006)
